The target in one experiment is JAK1 (Homo sapiens (Human), UniProt P23458). Put plainly: JAK1 LANCE Ultra kinase assay. The following applies: for IC50: 38 uM ATP; for JAK2/JAK1: ratio of IC50 JAK2 to IC50 JAK1. In kind it is biochemical. In a few lines:
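JAK1 preincubated with compound 10 min at room temperature, then ULight-JAK-1 peptide/ATP added for 90 min at room temperature; stopped with EDTA, Eu-W1024 anti-phosphotyrosine TR-FRET read after 60 min. Inhibition normalised to DMSO and blank wells; IC50 from curve fit.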

Another experiment has as its target JAK3 (Homo sapiens (Human), UniProt P52333). Put plainly: JAK3 LANCE Ultra kinase assay. In kind it is biochemical. The following applies: 4 uM ATP. On the technique in general: Time-resolved FRET reads energy transfer from a long-lived donor to a nearby acceptor.
For another experiment, the system named is TF-1 cell. In words: TF-1 cell proliferation test. In kind it is cell-based. The following applies: Homo sapiens, 72 h. The procedure:
Inhibiting test of the compounds of the invention on proliferation of Blast T cell and TF-1 cell (American type culture collection) was carried out by the following method. The tested compounds […], and […] were dissolved in dimethyl sulfoxide from 0.0006 to 10 μM in quadruplicate dilutions. […] The luminescence value was read on Microplate Reader (Molecular Device). […] The IC50 values of the corresponding compounds were then obtained by fitting by using the XLFit fitting tool in excel.

The next experiment relates to Blast T cell. Put plainly: Cell proliferation test of IL-2 stimulated Blast T cell. It counts as cell-based. The following applies: Homo sapiens; IL-2 stimulated Blast T cell proliferation, 72 hours. As to the method:
Inhibiting test of the compounds of the invention on proliferation of Blast T cell and TF-1 cell (American type culture collection) was carried out by the following method. The tested compounds […], and […] were dissolved in dimethyl sulfoxide from 0.0006 to 10 μM in quadruplicate dilutions. […] 10 μg/ml […] was added to stimulate and obtain cells with a density of 2×10^6/mL, which were incubated for 3 days. The cells were washed with phosphate buffer for three times and IL-2 (100 u/ml) was added to stimulate for 1 week. Cells were suspended using the culture medium and seeded at 5×10^4 cell/well density into 96-well plates, and incubated for 1 h with the prepared test compound or DMSO control at various concentrations from 0.0006 to 10 μM diluted by 4-fold volume. After incubation with 20 u/ml of IL-2 (50 μl/well without reference well) for 72 hours, Celltiter Glo® reagent (Promega, G7571) was added and mixed for 5 minutes, then incubated for 30 minutes at room temperature. The luminescence value was read on SpectraMax L (Molecular Device). […] The IC50 values of the corresponding compounds were then obtained by fitting by using the XLFit fitting tool in excel.

In another experiment the target is JAK2 (Homo sapiens (Human), UniProt O60674). In words: JAK2 LANCE Ultra kinase assay. It counts as biochemical. The following applies: 12 uM ATP.

The structures appear in SMILES notation.

This note sets out measurements from patent publication US12398141B2 (SHANGHAI SYNERGY PHARMACEUTICAL SCIENCES CO., LTD, priority 2019, dated 2025).

Broadly, the IC50 is the concentration at which inhibition is half-maximal.

JAK1, sequence (P23458 whole entry): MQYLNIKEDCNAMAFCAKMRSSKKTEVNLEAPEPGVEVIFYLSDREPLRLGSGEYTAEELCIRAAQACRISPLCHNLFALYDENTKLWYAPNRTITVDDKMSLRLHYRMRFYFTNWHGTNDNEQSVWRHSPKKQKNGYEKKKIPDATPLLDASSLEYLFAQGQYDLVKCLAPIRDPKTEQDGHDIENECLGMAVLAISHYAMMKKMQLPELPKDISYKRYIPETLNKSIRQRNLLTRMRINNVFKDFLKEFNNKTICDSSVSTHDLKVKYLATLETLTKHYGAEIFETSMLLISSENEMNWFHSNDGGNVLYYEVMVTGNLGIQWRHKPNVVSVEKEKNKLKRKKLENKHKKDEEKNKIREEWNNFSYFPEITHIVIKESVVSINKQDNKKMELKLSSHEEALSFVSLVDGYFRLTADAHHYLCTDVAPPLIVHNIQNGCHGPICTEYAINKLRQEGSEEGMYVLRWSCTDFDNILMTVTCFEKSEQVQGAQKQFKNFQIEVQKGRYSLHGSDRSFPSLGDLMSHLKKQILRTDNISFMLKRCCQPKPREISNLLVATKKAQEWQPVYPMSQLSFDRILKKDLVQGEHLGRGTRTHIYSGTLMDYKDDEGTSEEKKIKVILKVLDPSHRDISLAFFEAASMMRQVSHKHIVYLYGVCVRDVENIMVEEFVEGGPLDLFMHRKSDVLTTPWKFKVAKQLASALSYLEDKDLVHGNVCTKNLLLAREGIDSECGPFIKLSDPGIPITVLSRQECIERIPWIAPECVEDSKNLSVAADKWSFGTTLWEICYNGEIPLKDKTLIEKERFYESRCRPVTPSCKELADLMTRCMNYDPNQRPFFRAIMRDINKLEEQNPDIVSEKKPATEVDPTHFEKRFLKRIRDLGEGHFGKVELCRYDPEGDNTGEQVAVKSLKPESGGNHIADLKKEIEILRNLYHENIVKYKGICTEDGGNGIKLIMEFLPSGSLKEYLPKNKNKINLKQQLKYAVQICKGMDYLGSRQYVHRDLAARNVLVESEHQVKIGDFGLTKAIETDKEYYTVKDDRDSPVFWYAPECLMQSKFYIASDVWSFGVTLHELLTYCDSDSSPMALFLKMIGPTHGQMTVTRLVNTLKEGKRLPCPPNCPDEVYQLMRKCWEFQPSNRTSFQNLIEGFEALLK
JAK3, sequence (P52333 whole entry): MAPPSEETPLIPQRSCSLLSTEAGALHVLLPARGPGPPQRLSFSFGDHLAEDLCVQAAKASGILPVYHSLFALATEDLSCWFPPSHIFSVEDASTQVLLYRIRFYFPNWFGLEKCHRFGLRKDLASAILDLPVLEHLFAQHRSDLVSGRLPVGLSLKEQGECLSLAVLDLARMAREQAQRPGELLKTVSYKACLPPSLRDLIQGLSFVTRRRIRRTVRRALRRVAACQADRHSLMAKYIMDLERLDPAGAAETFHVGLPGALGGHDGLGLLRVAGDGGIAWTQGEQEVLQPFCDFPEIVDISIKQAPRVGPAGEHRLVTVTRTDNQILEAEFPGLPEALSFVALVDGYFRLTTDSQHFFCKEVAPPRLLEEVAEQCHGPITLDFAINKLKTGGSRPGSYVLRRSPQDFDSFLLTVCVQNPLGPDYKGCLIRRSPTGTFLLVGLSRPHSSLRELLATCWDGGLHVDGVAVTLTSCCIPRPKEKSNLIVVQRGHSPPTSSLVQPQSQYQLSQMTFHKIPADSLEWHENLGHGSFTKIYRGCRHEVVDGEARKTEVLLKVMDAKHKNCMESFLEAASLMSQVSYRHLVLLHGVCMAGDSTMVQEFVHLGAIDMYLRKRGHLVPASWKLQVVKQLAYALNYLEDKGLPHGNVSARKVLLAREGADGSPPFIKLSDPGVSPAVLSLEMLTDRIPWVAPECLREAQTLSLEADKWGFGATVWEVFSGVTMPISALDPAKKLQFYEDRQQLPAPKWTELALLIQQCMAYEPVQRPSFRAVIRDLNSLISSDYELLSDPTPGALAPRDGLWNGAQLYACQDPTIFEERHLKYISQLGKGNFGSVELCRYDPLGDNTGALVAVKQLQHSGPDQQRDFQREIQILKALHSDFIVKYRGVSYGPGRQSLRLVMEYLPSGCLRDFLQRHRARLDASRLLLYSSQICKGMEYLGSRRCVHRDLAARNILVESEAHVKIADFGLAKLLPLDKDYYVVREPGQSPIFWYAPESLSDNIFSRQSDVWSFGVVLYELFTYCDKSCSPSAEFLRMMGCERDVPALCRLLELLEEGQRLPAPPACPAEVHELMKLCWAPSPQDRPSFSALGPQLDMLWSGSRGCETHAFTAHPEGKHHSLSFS
JAK2, sequence (O60674 whole entry): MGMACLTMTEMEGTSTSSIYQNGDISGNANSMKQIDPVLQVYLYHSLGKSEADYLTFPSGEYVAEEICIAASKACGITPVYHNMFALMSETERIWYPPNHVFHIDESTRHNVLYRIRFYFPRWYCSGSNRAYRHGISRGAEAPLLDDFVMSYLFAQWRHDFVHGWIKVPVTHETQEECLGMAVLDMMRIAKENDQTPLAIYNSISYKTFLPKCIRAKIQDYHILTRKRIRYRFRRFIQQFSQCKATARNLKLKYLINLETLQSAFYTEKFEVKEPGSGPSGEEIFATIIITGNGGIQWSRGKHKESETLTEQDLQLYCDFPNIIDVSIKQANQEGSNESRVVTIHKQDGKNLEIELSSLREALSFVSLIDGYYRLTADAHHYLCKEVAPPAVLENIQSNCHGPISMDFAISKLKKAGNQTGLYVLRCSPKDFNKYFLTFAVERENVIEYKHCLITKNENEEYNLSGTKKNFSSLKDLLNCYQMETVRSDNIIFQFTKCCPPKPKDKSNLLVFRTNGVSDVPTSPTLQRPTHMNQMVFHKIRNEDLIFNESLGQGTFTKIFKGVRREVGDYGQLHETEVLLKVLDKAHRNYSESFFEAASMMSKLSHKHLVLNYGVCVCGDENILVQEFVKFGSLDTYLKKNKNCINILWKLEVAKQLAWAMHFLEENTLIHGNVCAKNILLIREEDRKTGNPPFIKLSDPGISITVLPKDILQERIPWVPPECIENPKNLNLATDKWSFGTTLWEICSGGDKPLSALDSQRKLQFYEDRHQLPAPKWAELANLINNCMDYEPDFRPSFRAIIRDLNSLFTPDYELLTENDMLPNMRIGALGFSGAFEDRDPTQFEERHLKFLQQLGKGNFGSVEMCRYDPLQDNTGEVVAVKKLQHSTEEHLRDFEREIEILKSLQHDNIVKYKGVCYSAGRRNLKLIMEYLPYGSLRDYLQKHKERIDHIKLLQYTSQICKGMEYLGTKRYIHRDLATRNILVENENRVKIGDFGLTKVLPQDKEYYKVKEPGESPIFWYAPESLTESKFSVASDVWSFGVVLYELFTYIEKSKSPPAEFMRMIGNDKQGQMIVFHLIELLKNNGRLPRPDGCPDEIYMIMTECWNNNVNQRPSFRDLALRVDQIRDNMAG

`CC[C@@H]1CN(C(=O)NCC(F)(F)F)C[C@@H]1Nc1c(C(F)(F)F)cnc2[nH]ccc12` (relative stereo) [Compound H92, (cis)-3-ethyl-N-(2,2,2-trifluoroethyl)-4-((5-(trifluoromethyl)-1H-pyrrolo[2,3-b]pyridin-4-yl)amino)pyrrolidin-1-carboxamide]: the IC50 at JAK1 came to 8.21 nM; at JAK3, 258 nM; in the experiment with TF-1 cell it was 0.91 µM; with Blast T cell, 0.027 µM; at JAK2 it was 14.9 nM. Also, at JAK1, the JAK2/JAK1 turned out to be 1.81.
In the case of `CCc1nsc(NC(=O)N2C[C@H]3C[C@H](N(C)c4c(C#N)cnc5[nH]ccc45)C[C@H]3C2)n1` [Compound H08, (3aR,5s,6aS)-4-({2-[(3-ethyl-1,2,4-thiadiazole-5-yl)carbamoyl]-hexahydrocyclopenta[c]pyrrole-5-yl}-methyl-amino)-1H-pyrrolo[2,3-b]pyridin-5-carbonitrile], the IC50 against JAK1 was found to be 0.39 nM; against JAK3, 63 nM; in the experiment on TF-1 cell, 1.3 µM; in the experiment with Blast T cell it was 0.026 µM; against JAK2, 3 nM. On JAK1, the JAK2/JAK1 came out at 7.69.
`CN(c1c(C#N)cnc2[nH]ccc12)[C@H]1C[C@@H](NS(=O)(=O)c2cccc(C(F)(F)F)c2)C1` [Compound H09, 4-{[3-(3-(trifluoromethyl)benzenesulfonamido)-cyclobutyl-1-yl]-methyl-amino}-1H-pyrrolo[2,3-b]pyridin-5-carbonitrile]: the IC50 at JAK1 worked out at 3.86 nM; against JAK3, 156 nM; in the experiment on TF-1 cell it was 1.56 µM; with Blast T cell it was 0.036 µM; at JAK2 it was 26.5 nM.
With `CN(c1c(C#N)cnc2[nH]ccc12)[C@H]1C[C@@H](NS(=O)(=O)c2cccc3nonc23)C1` [Compound H18, (cis)-4-{[3-(benzo[c][1,2,5]oxadiazole-4-sulfonamido)-cyclobutyl-1-yl]-methyl-amino}-1H-pyrrolo[2,3-b]pyridin-5-carbonitrile], the IC50 was determined as 0.65 nM against JAK1; 40 nM on JAK3; 1.56 µM in the experiment on TF-1 cell; 0.04 µM in the experiment on Blast T cell; 5.7 nM against JAK2.
For the compound `CN(c1c(C#N)cnc2[nH]ccc12)[C@H]1C[C@@H]2CN(C(=O)Nc3nc(C4CC4)ns3)C[C@@H]2C1` [Compound H26, (3aR,5s,6aS)-5-((5-cyano-1H-pyrrolo[2,3-b]pyridin-4-yl)(methyl)amino)-N-(3-cyclopropyl-1,2,4-thiadiazole-5-yl)hexahydrocyclopentadiene[c]pyrrole-2(1H)-carboxamide], the IC50 is 2.6 nM against JAK1; 101 nM against JAK3; 1.98 µM in the experiment on TF-1 cell; 0.027 µM in the experiment with Blast T cell; 18 nM against JAK2. The JAK2/JAK1 at JAK1 came out at 6.92.
As to `C[C@@H]1CN(C(=O)NCC(F)(F)F)C[C@@H]1Nc1c(C#N)cnc2[nH]ccc12` [Compound H40], the IC50 came out at 2.6 nM against JAK1; 144 nM on JAK3; 1.24 µM with TF-1 cell; 0.036 µM in the experiment on Blast T cell; 15.6 nM on JAK2. For the same compound, the JAK2/JAK1 at JAK1 was 6.00.
As to `COc1noc(NC(=O)N2C[C@H]3C[C@H](N(C)c4c(C#N)cnc5[nH]ccc45)C[C@H]3C2)n1` [Compound H43, (3aR,5s,6aS)-5-((5-cyano-1H-pyrrolo[2,3-b]pyridin-4-yl)(methyl)amino)-N-(3-methoxy-1,2,4-oxadiazole-5-yl)hexahydrocyclopentadiene[c]pyrrole-2(1H)-carboxamide], the IC50 was determined as 2.4 nM on JAK1; 125 nM at JAK3; 1.44 µM in the experiment on TF-1 cell; 0.043 µM in the experiment with Blast T cell; 20 nM at JAK2. For the same compound, the JAK2/JAK1 at JAK1 amounted to 8.33.
In the case of `COc1nsc(NC(=O)N2C[C@H]3C[C@H](Nc4c(C(F)(F)F)cnc5[nH]ccc45)C[C@H]3C2)n1` [Compound H50, (3aR,5s,6aS)-5-((5-trifluoromethyl-1H-pyrrolo[2,3-b]pyridin-4-yl)amino)-N-(3-methoxy-1,2,4-thiadiazole-5-yl)hexahydrocyclopentadiene[c]pyrrole-2(1H)-carboxamide], the IC50 was 4.65 nM against JAK1; 137 nM at JAK3; 0.85 µM in the experiment with TF-1 cell; 0.034 µM in the experiment with Blast T cell; 33 nM against JAK2.
Consider `CN(c1c(C#N)cnc2[nH]ccc12)[C@H]1CC[C@H](CS(=O)(=O)N2CCC(C)(O)C2)CC1` (stereo partly drawn) [Compound H62], for which the IC50 stood at 5.8 nM against JAK1; 40 nM against JAK3; 1.32 µM with TF-1 cell; 0.029 µM in the experiment with Blast T cell; 16 nM against JAK2. Moreover, the JAK2/JAK1 on JAK1 was determined as 2.76.
In the case of `COCCOC1CCCN(S(=O)(=O)C[C@H]2CC[C@@H](N(C)c3c(C#N)cnc4[nH]ccc34)C2)C1` (stereo partly drawn) [Compound H70], the IC50 is 6.7 nM on JAK1; 47 nM against JAK3; 1.53 µM in the experiment with TF-1 cell; 0.048 µM in the experiment with Blast T cell; 13.9 nM on JAK2. Also, on JAK1, the JAK2/JAK1 is on record as 2.07.
